According to patent US10406146B2, “Heterocyclic compound” (TAKEDA PHARMACEUTICAL COMPANY LIMITED, priority 2015, dated 2019):

How the values were obtained:
Type in all cases: biochemical
HDAC6 enzyme = target: T1, HDAC6 enzyme (Homo sapiens, UniProt Q9UBN7); assay: HDAC6 enzyme inhibitory assay (HDAC-Glo I/II Assay kit); settings: wells without enzyme = 100% inhibition; for inhibition at 1 µM: read-out: HDAC6 inhibitory rate (%) (1 μM)
T1 construct: transducing full length HDAC1 and HDAC6 genes into Sf-9 insect cells; GST; purchased SignalChem; host or cells: Sf-9 insect cells
T1 sequence (Q9UBN7 1-1215): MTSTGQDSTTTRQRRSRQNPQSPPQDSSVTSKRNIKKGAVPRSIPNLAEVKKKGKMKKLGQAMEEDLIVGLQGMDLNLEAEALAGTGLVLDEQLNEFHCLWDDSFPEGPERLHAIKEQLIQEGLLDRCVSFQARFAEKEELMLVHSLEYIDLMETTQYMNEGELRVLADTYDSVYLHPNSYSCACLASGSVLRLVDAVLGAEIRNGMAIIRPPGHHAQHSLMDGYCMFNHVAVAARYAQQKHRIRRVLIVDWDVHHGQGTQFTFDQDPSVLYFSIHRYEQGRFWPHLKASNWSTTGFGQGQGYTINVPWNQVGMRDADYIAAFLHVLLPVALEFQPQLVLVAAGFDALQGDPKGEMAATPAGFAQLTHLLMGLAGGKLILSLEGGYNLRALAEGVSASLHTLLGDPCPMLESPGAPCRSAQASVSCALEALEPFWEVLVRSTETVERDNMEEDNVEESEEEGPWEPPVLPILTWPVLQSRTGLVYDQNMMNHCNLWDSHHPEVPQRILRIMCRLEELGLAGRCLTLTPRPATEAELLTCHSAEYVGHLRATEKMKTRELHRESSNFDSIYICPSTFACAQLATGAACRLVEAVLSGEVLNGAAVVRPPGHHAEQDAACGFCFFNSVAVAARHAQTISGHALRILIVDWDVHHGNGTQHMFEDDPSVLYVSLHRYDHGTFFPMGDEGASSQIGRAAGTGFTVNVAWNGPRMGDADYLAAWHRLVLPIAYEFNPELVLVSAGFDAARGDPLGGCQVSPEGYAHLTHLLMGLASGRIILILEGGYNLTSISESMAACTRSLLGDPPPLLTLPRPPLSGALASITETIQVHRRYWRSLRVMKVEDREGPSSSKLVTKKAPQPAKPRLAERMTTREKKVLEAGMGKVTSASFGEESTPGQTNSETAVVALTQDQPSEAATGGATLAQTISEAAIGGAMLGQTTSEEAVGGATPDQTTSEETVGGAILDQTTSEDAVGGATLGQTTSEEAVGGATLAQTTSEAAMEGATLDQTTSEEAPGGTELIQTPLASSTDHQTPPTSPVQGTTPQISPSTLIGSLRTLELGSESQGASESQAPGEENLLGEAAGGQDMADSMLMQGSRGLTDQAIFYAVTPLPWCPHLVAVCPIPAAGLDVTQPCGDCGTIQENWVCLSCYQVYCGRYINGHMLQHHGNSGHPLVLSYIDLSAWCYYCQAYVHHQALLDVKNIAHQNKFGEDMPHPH
Protocol: (§1) HDAC1/6 Enzyme Inhibitory Assay
(§2) HDAC1 enzyme and HDAC6 enzyme each prepared by transducing full length HDAC1 and HDAC6 genes into Sf-9 insect cells and purifying by GST affinity column were purchased from SignalChem. Using these enzymes, HDAC1 and/or HDAC6 enzyme inhibitory activities of the compound of the present invention were evaluated. Enzymes were used after preserved at −70° C. HDAC1 or HDAC6 enzyme inhibitory activity of the compound of the present invention was measured using HDAC-Glo™ I/II Assay kit (Promega) according to the following experimental method. The test compound diluted with assay buffer (24 mM Tris-HCl (pH 7.5), 1 mM MgCl2, 0.35 mM KCl, 135 mM NaCl, 0.6 mM Glutathione, 0.01% Tween-20) was added to a 384-well plate by each 2 μL. Then, HDAC1 or HDAC6 enzyme solution diluted with assay buffer was added thereto by each 4 μL, and the plate was incubated at room temperature for 60 min. After incubated, HDAC substrate-Developer solution prepared according to Promega protocol attached to the assay kit was added to the 384-well plate by each 2 μL, and the enzyme reaction was started. After reacting at room temperature for 20 min, luminescence level was measured using plate reader Envision (PerkinElmer). The inhibitory activity of each compound was calculated as a relative activity value when luminescence level in wells without enzyme is considered as 100% inhibition.

HDAC1 enzyme = target: T2, HDAC1 enzyme (Homo sapiens, UniProt Q13547); assay: HDAC1 enzyme inhibitory assay (HDAC-Glo I/II Assay kit); settings: wells without enzyme = 100% inhibition; for inhibition at 1 µM: read-out: HDAC1 inhibitory rate (%) (1 μM)
T2 construct: transducing full length HDAC1 and HDAC6 genes into Sf-9 insect cells; GST; purchased SignalChem; host or cells: Sf-9 insect cells
Protocol: as §1, §2

HDAC9 enzyme = target: T3, HDAC9 enzyme (Homo sapiens, UniProt Q9UKV0); assay: HDAC9 enzyme inhibitory assay (HDAC-Glo class IIa); settings: wells without enzyme = 100% inhibition; for inhibition at 1 µM: read-out: HDAC9 inhibitory rate (%) (1 μM)
T3 construct: transducing full length HDAC9 gene into Sf-9 insect cells; made in house; host or cells: Sf-9 insect cells
Protocol: HDAC9 Enzyme Inhibitory Assay
Enzyme was prepared by transducing full length HDAC9 gene into Sf-9 insect cells and purifying by Ni-NTA affinity column, and HDAC9 enzyme inhibitory activity was evaluated. Enzymes were used after preserved at −70° C. HDAC9 enzyme inhibitory activity of the test compound was measured using HDAC-Glo class IIa (Promega) according to the following experimental method. The test compound diluted with assay buffer (24 mM Tris-HCl (pH 7.5), 1 mM MgCl2, 0.35 mM KCl, 135 mM NaCl, 0.6 mM Glutathione, 0.01% Tween-20) was added to a 384-well plate by each 2 μL. Then, HDAC9 enzyme solution diluted with assay buffer was added thereto by each 2 μL, and the plate was incubated at room temperature for 60 min. After incubated, HDAC substrate-Developer solution prepared according to Promega protocol was added to the 384-well plate by each 4 μL, and the enzyme reaction was started. After reacting at room temperature for 20 min, luminescence level was measured using plate reader Envision (PerkinElmer). The inhibitory activity of each compound was calculated as a relative activity value when luminescence level in wells without enzyme is considered as 100% inhibition.

T2 sequence (Q13547 whole entry): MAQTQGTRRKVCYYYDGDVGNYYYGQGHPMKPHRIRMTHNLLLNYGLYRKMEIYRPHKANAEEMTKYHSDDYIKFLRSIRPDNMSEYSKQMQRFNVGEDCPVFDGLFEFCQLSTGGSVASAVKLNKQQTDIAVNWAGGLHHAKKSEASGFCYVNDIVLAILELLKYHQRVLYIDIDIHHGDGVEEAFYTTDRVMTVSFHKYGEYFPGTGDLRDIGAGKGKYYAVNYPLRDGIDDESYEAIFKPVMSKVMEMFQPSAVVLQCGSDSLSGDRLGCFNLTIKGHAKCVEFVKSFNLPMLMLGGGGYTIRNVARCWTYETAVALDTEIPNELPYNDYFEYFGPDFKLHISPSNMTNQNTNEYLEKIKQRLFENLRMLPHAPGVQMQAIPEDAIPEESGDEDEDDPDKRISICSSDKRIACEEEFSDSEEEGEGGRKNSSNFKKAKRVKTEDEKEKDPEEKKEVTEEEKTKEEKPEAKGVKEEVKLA
T3 sequence (Q9UKV0 whole entry, species assumed): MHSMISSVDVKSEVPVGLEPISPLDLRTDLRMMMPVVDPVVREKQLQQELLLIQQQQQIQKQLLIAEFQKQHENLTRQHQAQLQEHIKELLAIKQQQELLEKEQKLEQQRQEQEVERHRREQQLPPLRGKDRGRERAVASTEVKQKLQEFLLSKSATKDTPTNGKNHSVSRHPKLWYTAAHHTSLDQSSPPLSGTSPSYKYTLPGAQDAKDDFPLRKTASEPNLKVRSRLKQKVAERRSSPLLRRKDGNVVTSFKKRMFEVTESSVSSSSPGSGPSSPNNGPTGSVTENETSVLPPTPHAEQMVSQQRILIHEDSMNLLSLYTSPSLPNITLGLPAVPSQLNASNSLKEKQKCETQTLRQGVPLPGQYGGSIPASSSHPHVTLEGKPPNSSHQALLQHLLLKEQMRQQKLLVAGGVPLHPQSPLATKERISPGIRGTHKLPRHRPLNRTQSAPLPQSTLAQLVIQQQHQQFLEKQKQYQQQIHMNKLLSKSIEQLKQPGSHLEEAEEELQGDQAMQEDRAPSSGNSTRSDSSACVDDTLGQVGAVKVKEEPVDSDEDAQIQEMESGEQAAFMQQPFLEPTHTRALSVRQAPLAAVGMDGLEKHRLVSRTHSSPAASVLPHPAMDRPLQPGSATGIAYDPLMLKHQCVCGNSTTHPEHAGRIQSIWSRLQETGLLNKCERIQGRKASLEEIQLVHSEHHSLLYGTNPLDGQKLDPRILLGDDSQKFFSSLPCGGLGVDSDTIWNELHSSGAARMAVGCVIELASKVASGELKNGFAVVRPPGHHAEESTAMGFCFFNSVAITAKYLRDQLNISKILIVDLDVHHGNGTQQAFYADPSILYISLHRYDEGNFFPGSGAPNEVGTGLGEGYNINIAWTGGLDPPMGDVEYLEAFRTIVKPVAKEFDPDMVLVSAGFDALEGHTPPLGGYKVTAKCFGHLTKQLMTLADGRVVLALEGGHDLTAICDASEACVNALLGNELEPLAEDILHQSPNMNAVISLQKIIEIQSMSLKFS

Structure (SMILES)	inhibition at 1 µM (HDAC6 enzyme) [%]	inhibition at 1 µM (HDAC1 enzyme) [%]	inhibition at 1 µM (HDAC9 enzyme) [%]	HDAC6 inhibitory rate (%) (1 μM) (HDAC6 enzyme)	HDAC1 inhibitory rate (%) (1 μM) (HDAC1 enzyme)	HDAC9 inhibitory rate (%) (1 μM) (HDAC9 enzyme)
CN(C)c1cccc(C(=O)NCC2CCCCN2C(=O)Nc2ccc(-c3noc(C(F)(F)F)n3)cc2)c1 (stereo not drawn) [Example 28, 2-(((3-(dimethylamino)benzoyl)amino)methyl)-N-(4-(5-(trifluoromethyl)-1,2,4-oxadiazol-3-yl)phenyl)piperidine-1-carboxamide]	2	4	86			
O=C(NCC1CCCCN1C(=O)Nc1ccc(-c2noc(C(F)(F)F)n2)cc1)C1CC1 (stereo not drawn) [Example 49, 2-(((cyclopropylcarbonyl)amino)methyl)-N-(4-(5-(trifluoromethyl)-1,2,4-oxadiazol-3-yl)phenyl)piperidine-1-carboxamide]	7	75	92			
CN1CCC(C(=O)NCC2CCCCN2C(=O)Nc2ccc(-c3noc(C(F)(F)F)n3)cc2)CC1 (stereo not drawn) [Example 52, 2-((((1-methylpiperidin-4-yl)carbonyl)amino)methyl)-N-(4-(5-(trifluoromethyl)-1,2,4-oxadiazol-3-yl)phenyl)piperidine-1-carboxamide]	6	27	80			
O=C(NCC1CCCCN1C(=O)Nc1ccc(-c2noc(C(F)(F)F)n2)cc1)c1cccc(-c2ccccc2)c1 (stereo not drawn) [Example 14, 2-(((biphenyl-3-ylcarbonyl)amino)methyl)-N-(4-(5-(trifluoromethyl)-1,2,4-oxadiazol-3-yl)phenyl)piperidine-1-carboxamide]	5	-8	51			
CC(C)(C)OC(=O)NCC1CCCCN1C(=O)Nc1ccc(-c2noc(C(F)(F)F)n2)cc1 (stereo not drawn) [Example 3, tert-butyl ((1-((4-(5-(trifluoromethyl)-1,2,4-oxadiazol-3-yl)phenyl)carbamoyl)piperidin-2-yl)methyl) carbamate]				5	51	87
O=C(NCC1CCCCN1C(=O)Nc1ccc(-c2noc(C(F)(F)F)n2)cc1)c1ccnc(O)c1 (stereo not drawn) [Example 58]				3	25	87
O=C(NCC1CCCCN1C(=O)Nc1ccc(-c2noc(C(F)(F)F)n2)cc1)c1ccc(Cl)c(Cl)c1 (stereo not drawn) [Example 32, 2-(((3,4-dichlorobenzoyl)amino)methyl)-N-(4-(5-(trifluoromethyl)-1,2,4-oxadiazol-3-yl)phenyl)piperidine-1-carboxamide]	0	-10	62			
O=C(NCC1CCCCN1C(=O)Nc1ccc(-c2noc(C(F)(F)F)n2)cc1)c1ccc2nccn2c1 (stereo not drawn) [Example 45, N-((1-((4-(5-(trifluoromethyl)-1,2,4-oxadiazol-3-yl)phenyl)carbamoyl)piperidin-2-yl)methyl)imidazo[1,2-a]pyridine-6-carboxamide]	3	20	93			

Results, then the compound that gave them:

inhibition at 1 µM (HDAC6 enzyme) [%]	inhibition at 1 µM (HDAC1 enzyme) [%]	inhibition at 1 µM (HDAC9 enzyme) [%]	HDAC6 inhibitory rate (%) (1 μM) (HDAC6 enzyme)	HDAC1 inhibitory rate (%) (1 μM) (HDAC1 enzyme)	HDAC9 inhibitory rate (%) (1 μM) (HDAC9 enzyme)	Structure (SMILES)
3	24	88				COc1cccc(C(=O)NCC2CCCCN2C(=O)Nc2ccc(-c3noc(C(F)(F)F)n3)cc2)c1 (stereo not drawn) [Example 24, 2-(((3-methoxybenzoyl)amino)methyl)-N-(4-(5-(trifluoromethyl)-1,2,4-oxadiazol-3-yl)phenyl)piperidine-1-carboxamide]
7	37	95				O=C(NCC1CCCCN1C(=O)Nc1ccc(-c2noc(C(F)(F)F)n2)cc1)c1cccs1 (stereo not drawn) [Example 38, 2-(((2-thienylcarbonyl)amino)methyl)-N-(4-(5-(trifluoromethyl)-1,2,4-oxadiazol-3-yl)phenyl)piperidine-1-carboxamide]
2	15	72				N#Cc1ccccc1C(=O)NCC1CCCCN1C(=O)Nc1ccc(-c2noc(C(F)(F)F)n2)cc1 (stereo not drawn) [Example 19, 2-(((2-cyanobenzoyl)amino)methyl)-N-(4-(5-(trifluoromethyl)-1,2,4-oxadiazol-3-yl)phenyl)piperidine-1-carboxamide]
5	4	84				Cc1ccccc1C(=O)NCC1CCCCN1C(=O)Nc1ccc(-c2noc(C(F)(F)F)n2)cc1 (stereo not drawn) [Example 10, 2-(((2-methylbenzoyl)amino)methyl)-N-(4-(5-(trifluoromethyl)-1,2,4-oxadiazol-3-yl)phenyl)piperidine-1-carboxamide]
2	42	94				O=C(NCC1CCCCN1C(=O)Nc1ccc(-c2noc(C(F)(F)F)n2)cc1)c1cccc(O)c1 (stereo not drawn) [Example 26, 2-(((3-hydroxybenzoyl)amino)methyl)-N-(4-(5-(trifluoromethyl)-1,2,4-oxadiazol-3-yl)phenyl)piperidine-1-carboxamide]
5	44	89				O=C(NCC1CCCCN1C(=O)Nc1ccc(-c2noc(C(F)(F)F)n2)cc1)c1ccccc1F (stereo not drawn) [Example 4, 2-(((2-fluorobenzoyl)amino)methyl)-N-(4-(5-(trifluoromethyl)-1,2,4-oxadiazol-3-yl)phenyl)piperidine-1-carboxamide]
2	2	88				O=C(NCC1CCCCN1C(=O)Nc1ccc(-c2noc(C(F)(F)F)n2)cc1)c1cc[n+]([O-])cc1 (stereo not drawn) [Example 37, N-((1-((4-(5-(trifluoromethyl)-1,2,4-oxadiazol-3-yl)phenyl)carbamoyl)piperidin-2-yl)methyl)isonicotinamide 1-oxide]
1	-2	57				O=C(NCC1CCCCN1C(=O)Nc1ccc(-c2noc(C(F)(F)F)n2)cc1)c1ccccc1C(F)(F)F (stereo not drawn) [Example 16, 2-(((2-(trifluoromethyl)benzoyl)amino)methyl)-N-(4-(5-(trifluoromethyl)-1,2,4-oxadiazol-3-yl)phenyl)piperidine-1-carboxamide]
